Earlier results on one compound are cited in patent US20100272789A1, “EXTERNAL MEDICINE FOR TREATMENT OR PREVENTION” (priority 2007, published 2010).

Molecules are shown by their SMILES.

For the series the following is noted: 20 degrees Celsius at 1 atm.

For `[HH]` [hydrogen molecules, hydrogen], the “solubility of hydrogen molecules into water” value is 1.6 µg/mL.
